# Assay results from US20230131899A1, “INHIBITORS OF MICROBIALLY INDUCED AMYLOID” (Axial Therapeutics, Inc., priority 2020, published 2023).
# Read-outs that look alike come from different tables or passages of the source.
# Molecular target: T1, E. coli CsgA (Escherichia coli, UniProt P28307)
# T1 construct: made in house; host or cells: E. coli NEB 3016 slyD::kan, pET11d
# Assay: In vitro ThioflavinT assay of CsgA aggregation (CsgA ThT Assay)
# Type: biochemical
# Settings: 1005 minutes; for remaining activity at 25 µM: compound 25 μM; for remaining activity at 100 µM: compound 100 μM
# How it was run: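 Purified C-terminal His-tagged CsgA, monomerised by desalting and 30-kDa filtration, at 2-20 μM with 20-40 μM ThT in 50 mM potassium phosphate pH 7.3, 1% DMSO, compounds 3.125-200 uM; room temperature, fluorescence (ex 438/em 495 nm) read every 15 min. Background-subtracted signal expressed as percent inhibition versus vehicle at 6-6.5 or 8-9 h, or as percent control AUC.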
# [1] = read-out: CsgA ThT Assay (10 μM CsgA) % Control AUC at 1005 minutes, 25 μM (activity range), CsgA 10 μM, black plates, class symbol
# [2] = read-out: CsgA ThT Assay (10 μM CsgA) % Control AUC at 1005 minutes, 25 μM, mean AUC as % of DMSO control, CsgA 10 μM, black plates
# [3] = read-out: CsgA ThT Assay (10 μM CsgA) % Control AUC at 1005 minutes, 100 μM (activity range), CsgA 10 μM, black plates, class symbol
# [4] = read-out: CsgA ThT Assay (10 μM CsgA) % Control AUC at 1005 minutes, 100 μM, mean AUC as % of DMSO control, CsgA 10 μM, black plates
# T1 sequence (P28307 23-151): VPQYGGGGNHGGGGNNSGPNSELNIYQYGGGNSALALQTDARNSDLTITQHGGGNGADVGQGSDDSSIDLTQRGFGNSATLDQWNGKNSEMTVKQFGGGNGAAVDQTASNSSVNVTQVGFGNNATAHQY
Compound,remaining activity at 25 µM [1],remaining activity at 25 µM [2],remaining activity at 100 µM [3],remaining activity at 100 µM [4]
"CC1(C(=O)O)CNS(=O)(=O)c2c(-c3cccc(C(F)(F)F)c3)c(Cc3cccc4ccccc34)cc(=O)n21 (stereo not drawn) [Compound 042, 4-methyl-8-(naphthalen-1-ylmethyl)-6-oxo-9-(3-(trifluoromethyl)phenyl)-3,4-dihydro-2H,6H-pyrido[1,2-e][1,2,5]thiadiazine-4-carboxylic acid 1,1-dioxide]",31 to 60%,52%,11 to 31%,18%
"Cn1c(=O)c2c(nc(CCCCN3CC(C(=O)O)n4c(c(-c5cccc(C(F)(F)F)c5)c(Cc5cccc6ccccc56)cc4=O)S3(=O)=O)n2C)n(C)c1=O (stereo not drawn) [Compound 044, 8-(naphthalen-1-ylmethyl)-6-oxo-9-(3-(trifluoromethyl)phenyl)-2-(4-(1,3,7-trimethyl-2,6-dioxo-2,3,6,7-tetrahydro-1H-purin-8-yl)butyl)-3,4-dihydro-2H,6H-pyrido[1,2-e][1,2,5]thiadiazine-4-carboxylic acid 1,1-dioxide]",31 to 60%,55%,31 to 60%,42%
"Cn1c(=O)c2c(nc(CCCCCN3CC(C(=O)O)n4c(c(-c5cccc(C(F)(F)F)c5)c(Cc5cccc6ccccc56)cc4=O)S3(=O)=O)n2C)n(C)c1=O (stereo not drawn) [Compound 045, 8-(naphthalen-1-ylmethyl)-6-oxo-9-(3-(trifluoromethyl)phenyl)-2-(5-(1,3,7-trimethyl-2,6-dioxo-2,3,6,7-tetrahydro-1H-purin-8-yl)pentyl)-3,4-dihydro-2H,6H-pyrido[1,2-e][1,2,5]thiadiazine-4-carboxylic acid 1,1-dioxide]",31 to 60%,59%,31 to 60%,53%
"Cn1c(=O)c2c(nc(CCCCCCN3CC(C(=O)O)n4c(c(-c5cccc(C(F)(F)F)c5)c(Cc5cccc6ccccc56)cc4=O)S3(=O)=O)n2C)n(C)c1=O (stereo not drawn) [Compound 046, 8-(naphthalen-1-ylmethyl)-6-oxo-9-(3-(trifluoromethyl)phenyl)-2-(6-(1,3,7-trimethyl-2,6-dioxo-2,3,6,7-tetrahydro-1H-purin-8-yl)hexyl)-3,4-dihydro-2H,6H-pyrido[1,2-e][1,2,5]thiadiazine-4-carboxylic acid 1,1-dioxide]",31 to 60%,55%,31 to 60%,55%
"Cn1c(=O)c2c(nc(CCCCCCCN3CC(C(=O)O)n4c(c(-c5cccc(C(F)(F)F)c5)c(Cc5cccc6ccccc56)cc4=O)S3(=O)=O)n2C)n(C)c1=O (stereo not drawn) [Compound 047, 8-(naphthalen-1-ylmethyl)-6-oxo-9-(3-(trifluoromethyl)phenyl)-2-(7-(1,3,7-trimethyl-2,6-dioxo-2,3,6,7-tetrahydro-1H-purin-8-yl)heptyl)-3,4-dihydro-2H,6H-pyrido[1,2-e][1,2,5]thiadiazine-4-carboxylic acid 1,1-dioxide]",31 to 60%,55%,> 60%,71%
"O=C(O)c1c(-c2ccccc2)sc2c(-c3cccc(C(F)(F)F)c3)c(Cc3cccc4ccccc34)cc(=O)n12 [Compound 051, 7-(naphthalen-1-ylmethyl)-5-oxo-2-phenyl-8-(3-(trifluoromethyl)phenyl)-5H-thiazolo[3,2-a]pyridine-3-carboxylic acid]",> 60%,81%,31 to 60%,54%
"O=C(O)C1n2c(c(-c3cccc(C(F)(F)F)c3)c(Cc3cccc4ccccc34)nc2=O)SC12CCCC2 (stereo not drawn) [Compound 053, 7′-(naphthalen-1-ylmethyl)-5′-oxo-8′-(3-(trifluoromethyl)phenyl)-3′H,5′H-spiro[cyclopentane-1,2′-thiazolo[3,2-c]pyrimidine]-3′-carboxylic acid]",31 to 60%,39%,11 to 31%,12%
"O=C(O)C1CSc2c(-c3cccc(C(F)(F)F)c3)c(Cc3cccc4ccccc34)cc(=S)n21 (stereo not drawn) [Compound 054, 7-(naphthalen-1-ylmethyl)-5-thioxo-8-(3-(trifluoromethyl)phenyl)-2,3-dihydro-5H-thiazolo[3,2-a]pyridine-3-carboxylic acid]",31 to 60%,44%,31 to 60%,50%
"O=C(O)C1CN(CCCO)S(=O)(=O)c2c(-c3cccc(C(F)(F)F)c3)c(Cc3cccc4ccccc34)cc(=O)n21 (stereo not drawn) [Compound 056, 2-(3-hydroxypropyl)-8-(naphthalen-1-ylmethyl)-6-oxo-9-(3-(trifluoromethyl)phenyl)-3,4-dihydro-2H,6H-pyrido[1,2-e][1,2,5]thiadiazine-4-carboxylic acid 1,1-dioxide]",31 to 60%,38%,31 to 60%,34%
"O=C(O)C1CSc2c(-c3cccc(C(F)(F)F)c3)c(Cc3cccc4ccccc34)c(CO)c(=O)n21 (stereo not drawn) [Compound 057, 6-(hydroxymethyl)-7-(naphthalen-1-ylmethyl)-5-oxo-8-(3-(trifluoromethyl)phenyl)-2,3-dihydro-5H-thiazolo[3,2-a]pyridine-3-carboxylic acid]",31 to 60%,59%,11 to 31%,24%
"CC1(C)Sc2c(-c3cccc(C(F)(F)F)c3)c(Cc3cccc4ccccc34)nc(=O)n2C1C(=O)O (stereo not drawn) [Compound 059, 2,2-dimethyl-7-(naphthalen-1-ylmethyl)-5-oxo-8-(3-(trifluoromethyl)phenyl)-2,3-dihydro-5H-thiazolo[3,2-c]pyrimidine-3-carboxylic acid]",> 60%,63%,11 to 31%,22%
"O=C(O)c1c(CCc2ccccc2)sc2c(-c3cccc(C(F)(F)F)c3)c(Cc3cccc4ccccc34)cc(=O)n12 [Compound 062, 7-(naphthalen-1-ylmethyl)-5-oxo-2-phenethyl-8-(3-(trifluoromethyl)phenyl)-5H-thiazolo[3,2-a]pyridine-3-carboxylic acid]",> 60%,77%,> 60%,97%
"O=C(O)C1COc2c(-c3cccc(C(F)(F)F)c3)c(Cc3cccc4ccccc34)cc(=O)n21 (stereo not drawn) [Compound 064, 7-(naphthalen-1-ylmethyl)-5-oxo-8-(3-(trifluoromethyl)phenyl)-2,3-dihydro-5H-oxazolo[3,2-a]pyridine-3-carboxylic acid]",31 to 60%,45%,11 to 31%,16%
"O=C(O)C1CN(C[C@H](O)CO)S(=O)(=O)c2c(-c3cccc(C(F)(F)F)c3)c(Cc3cccc4ccccc34)cc(=O)n21 (stereo partly drawn) [Compound 065a, 2-((S)-2,3-dihydroxypropyl)-8-(naphthalen-1-ylmethyl)-6-oxo-9-(3-(trifluoromethyl)phenyl)-3,4-dihydro-2H,6H-pyrido[1,2-e][1,2,5]thiadiazine-4-carboxylic acid 1,1-dioxide]",> 60%,65%,11 to 31%,18%
"Cc1c(Cc2cccc3ccccc23)c(-c2cccc(C(F)(F)F)c2)c2n(c1=O)C(C(=O)O)CN(C)S2(=O)=O (stereo not drawn) [Compound 068, 2,7-dimethyl-8-(naphthalen-1-ylmethyl)-6-oxo-9-(3-(trifluoromethyl)phenyl)-3,4-dihydro-2H,6H-pyrido[1,2-e][1,2,5]thiadiazine-4-carboxylic acid 1,1-dioxide]",31 to 60%,43%,11 to 31%,23%
"CN1CC(C(=O)O)n2c(c(-c3cccc(C(F)(F)F)c3)c(Cc3cccc4ccccc34)c(NC3CCCC3)c2=O)S1(=O)=O (stereo not drawn) [Compound 070, 7-(cyclopentylamino)-2-methyl-8-(naphthalen-1-ylmethyl)-6-oxo-9-(3-(trifluoromethyl)phenyl)-3,4-dihydro-2H,6H-pyrido[1,2-e][1,2,5]thiadiazine-4-carboxylic acid 1,1-dioxide]",11 to 31%,17%,11 to 31%,29%
CN1CC(C(=O)O)n2c(c(-c3cccc(C(F)(F)F)c3)c(Cc3cccc4ccccc34)c(NCc3ccccc3)c2=O)S1(=O)=O (stereo not drawn) [Compound 071],11 to 31%,25%,> 60%,78%
"O=C(O)C1CSc2c(-c3cccc(C(F)(F)F)c3)c(C(F)(F)c3cccc4ccccc34)cc(=O)n21 (stereo not drawn) [Compound 073, 7-(difluoro(naphthalen-1-yl)methyl)-5-oxo-8-(3-(trifluoromethyl)phenyl)-2,3-dihydro-5H-thiazolo[3,2-a]pyridine-3-carboxylic acid]",11 to 31%,27%,> 60%,97%
